Data: patent publication US11980616B2, “Treating liver disease by selectively eliminating senescent cells” (Buck Institute for Research on Aging, priority 2014, dated 2024)

Key:
senescent IMR90 cells = assay: CellTiter-Glo cell viability assay, senescent IMR90; type: cell-based, human
Method: (§1) To determine whether ABT-263 is selectively toxic to senescent cells compared to non-senescent cells, a cell viability assay was used to assess cell survival following treatment with ABT-263. IMR90 cells (human primary lung fibroblasts (IMR90) (IMR-90 (ATCC® CCL-186™, Manassas, Virginia) were seeded in six well plates, and cells were induced to senescence with 10 Gy of ionizing radiation (IR) (Day 0). The media was refreshed every 3 days. The senescent phenotype is allowed to develop for 7 days at which point a cell count was made to determine the baseline number of cells followed by seeding into 96-well plates. On day 8, the senescent cells (irradiated) and the non-senescent cells (the non-radiated cells), were exposed to serial dilutions of ABT-263 for a period of 3 days. ABT-263 concentrations ranged from 0.5 nM to 3 μM. Each condition was seeded in triplicate.
(§2) After three days of treatment (Day 11), cells were assayed for cell survival using the commercially available CellTiter-Glo® (CTG) Luminescent Cell Viability Assay (Promega Corporation, Madison, Wisconsin). The assay determines the number of viable cells in culture based on the quantitation of ATP present which is an indicator of metabolically active cells.
The experiments performed for assessing the effect of these other Bcl-2 inhibitors were performed essentially as described in Example 7. Cells were exposed to ABT-199 at serial dilution concentrations ranging from 15 nM to 100 μM (FIGS. 26 and 27). Cells were exposed to Obatoclax at concentrations ranging from 1.4 nM to 9 μM (FIG. 28).
IMR90 cells were induced to senescence by irradiation as described in Example 7. The irradiated IMR90 cells and non-senescent IMR90 cells were then exposed to a compound called ML214 that is a Bcl-2A1 specific inhibitor.
The effect of ABT-263 in combination with the Akt inhibitor MK-2206 was tested for selective toxicity of senescent cells compared to non-senescent cells in IMR90 cells. The methods of Example 7 were repeated except that cell cultures were exposed to 10 nM MK-2206 (Selleckem, Cat #S1078) in addition to serial dilutions of ABT-263.

[1] = tested on: 3MR or INK-ATTAC mice exposed to cigarette smoke; assay: Chronic cigarette smoke exposure model (COPD); type: in vivo, mouse; details: after 2 months of cigarette smoke exposure; vs untreated controls
Method: In a second animal model for pulmonary diseases (e.g., COPD), mice were exposed to cigarette smoke. The effect of a senolytic agent on the mice exposed to smoke is assessed by senescent cell clearance, lung function, and histopathology.
Six week-old 3MR (n=35) or INK-ATTAC (n=35) mice were chronically exposed to cigarette smoke generated from a Teague TE-10 system, an automatically-controlled cigarette smoking machine that produces a combination of side-stream and mainstream cigarette smoke in a chamber, which is transported to a collecting and mixing chamber where varying amounts of air is mixed with the smoke mixture. The COPD protocol was adapted from the COPD core facility at Johns Hopkins University (at Internet site web.jhu.edu/Biswal/exposure_core/copd.html#Cigarette_Smoke) (Rangasamy et al., 2004, J. Clin. Invest. 114:1248-1259; Yao et al., 2012, J. Clin. Invest. 122:2032-2045). Mice received a total of 6 hours of cigarette smoke exposure per day, 5 days a week for 6 months. Each lighted cigarette (3R4F research cigarettes containing 10.9 mg of total particulate matter (TPM), 9.4 mg of tar, and 0.726 mg of nicotine, and 11.9 mg carbon monoxide per cigarette [University of Kentucky, Lexington, KY]) was puffed for 2 seconds and once every minute for a total of 8 puffs, with the flow rate of 1.05 L/min, to provide a standard puff of 35 cm^3. The smoke machine was adjusted to produce a mixture of side stream smoke (89%) and mainstream smoke (11%) by smoldering 2 cigarettes at one time. The smoke chamber atmosphere was monitored for total suspended particulates (80-120 mg/m^3) and carbon monoxide (350 ppm). Beginning at day 7, (10) INK-ATTAC and (10) 3MR mice were treated with AP20187 (3× per week) or gancyclovir (5 consecutive days of treatment followed by 16 days off drug, repeated until the end of the experiment), respectively. An equal number of mice received the corresponding vehicle. The remaining […] (15 INK-ATTAC and 15 3MR) were evenly split with 5 of each genetically modified strain placed into three different treatment groups. One group (n=10) received Nutlin-3A (25 mg/kg dissolved in 10% DMSO/3% Tween-20 in PBS, treated 14 days consecutively followed by 14 days off drug, repeated until the end of the experiment). […]
After two months of cigarette smoke exposure, lung function was assessed by monitoring oxygen saturation using the MouseSTAT PhysioSuite pulse oximeter (Kent Scientific). […] Mice were monitored for 30 seconds and the average peripheral capillary oxygen saturation (SpO2) measurement over this duration was calculated.

[2] = tested on: INK-ATTAC transgenic mice; assay: Cardiac stress test (isoproterenol) in aged INK-ATTAC transgenic mice; type: in vivo, mouse
Method: To study the impact of senescent cell clearance on health and lifespan, cohorts of INK-ATTAC transgenic mice on FVB×129Sv/E×C57BL/6 mixed or C57BL/6 pure genetic backgrounds were established. At 12 months age, one half of each cohort was injected three times/week with AP20187 to induce apoptosis of p16-positive senescent cells (0.2 mg/kg and 2 mg/kg AP20187 for the mixed and the pure C57BL/6 cohorts, respectively), while the other half of each cohort received vehicle. At 18 months, subsets of male and female mice from each cohort were subjected to a cardiac stress test, in which mice were injected with a lethal dose of isoproterenol (680 mg/kg) and the time to cardiac arrest was recorded.
Cardio-protective signaling pathways are known to provide tolerance to metabolic stresses such as ischemia and hypoxia decline (Granfeldt et al., 2009, Cardiovasc. Res. 83:234-246). However, cardio-protective signaling deteriorates with aging, thus decreasing the functional and adaptive reserve capacity of the heart (Ogawa et al., 1992, Circulation 86:494-503; Wiebe et al., 1998, Clin. J. Sport Med. 8:272-279). ATP-dependent K channels (KATP) play a central role in cardio-protective signaling (Gross and Auchampach, 1992, Cardiovasc. Res. 26:1011-1016). These KATP channels are composed of the pore-forming subunit Kir6.2/Kir6.1, the regulatory subunit Sur2a, and additional accessory proteins. KATP channels are thought to decline with aging due to decreased expression of Sur2a (Du et al., 2006, FASEB J. 20:1131-1141; Jovanovic and Jovanovic, 2009, Curr. Opin. Pharmacol. 9:189-193; Ranki et al., 2002, Mech. Ageing Dev. 123:695-705). […] Thus, the contribution of senescent cells to the age-related decline in Sur2a expression was examined in 18 month old AP20187-treated and vehicle treated mice from subjected to the cardiac stress test previously described. […] Taken together, these experiments indicate that the presence of senescent cells with aging negatively impacts KATP channel function, and senescent cell clearance is an effective therapy to counteract this deterioration.

[3] = tested on: non-senescent IMR90 cells; assay: CellTiter-Glo cell viability assay, non-senescent IMR90; type: cell-based; details: Homo sapiens, IMR-90, 72 h; non-senescent IMR90, 3 days
Method: as §1, §2
The experiments performed for assessing the effect of these other Bcl-2 inhibitors were performed essentially as described in Example 7. […]

[4] = tested on: myocardial damage in patients; details: drug product inserts; cited from earlier work
p16-3MR animals = assay: Senescence induced by chemotherapeutic drugs in p16-3MR animals (luminescence); type: in vivo, mouse; details: p<0.05; pomalidomide 5 mg/kg, lenalidomide 50 mg/kg 7 daily injections; doxorubicin 10 mg/kg 2-4 injections
Method: To examine senescence induced by different chemotherapeutic drugs, groups of p16-3MR animals (n=4) were treated with thalidomide (100 mg/kg; 7 daily injections); romidepsin (1 mg/kg; 3 injections); pomalidomide (5 mg/kg; 7 daily injections); lenalidomide (50 mg/kg; 7 daily injections); 5-azacytidine (5 mg/kg; 3 injections) and compared with doxorubicin (10 mg/kg, 2-4 injections over 7 days).

p16-3MR transgenic mice = assay: Paclitaxel-induced senescence in p16-3MR mice; type: in vivo, mouse; details: 20 mg/kg three times every two days
Method: Paclitaxel induces senescence and SASP in p16-3MR transgenic mice. Groups of mice (n=4) were treated three times every two days with 20 mg/kg paclitaxel or vehicle. […] The level of mRNA in skin was determined for each of the target genes: p16, 3MR transgene, and IL-6.

CC1(C)CCC(CN2CCN(c3ccc(C(=O)NS(=O)(=O)c4ccc(NCC5CCOCC5)c([N+](=O)[O-])c4)c(Oc4cnc5[nH]ccc5c4)c3)CC2)=C(c2ccc(Cl)cc2)C1 [ABT-199]
Selective targeting (killing) of senescent cells over non-senescent cells (senescent IMR90 cells; IMR90): inability

CC[C@H](C(=O)N1CCCC[C@H]1C(=O)O[C@H](CCc1ccc(OC)c(OC)c1)c1cccc(OCC(=O)NCC(CNC(=O)COc2cccc([C@@H](CCc3ccc(OC)c(OC)c3)OC(=O)[C@@H]3CCCCN3C(=O)[C@@H](CC)c3cc(OC)c(OC)c(OC)c3)c2)CN(C)C)c1)c1cc(OC)c(OC)c(OC)c1 [AP20187]
SpO2 levels [1]: statistically significant increases
Time to cardiac arrest after lethal isoproterenol ([2]; 0.2 or 2 mg/kg three times/week from 12 to 18 months, isoproterenol 680 mg/kg): sustained youthful cardio-protection
Sur2a expression ([2]; 18-month-old female mice): sustained Sur2a expression
Median lifespan ([2]; INK-ATTAC mice): median lifespan extension

COC1=CC(c2cc3ccccc3[nH]2)=N/C1=C\c1[nH]c(C)cc1C [Obatoclax]
IC50 (senescent IMR90 cells; Homo sapiens, IMR-90, 72 h, senescent IMR90, 3 days): 0.125 µM
IC50 [3]: 0.075 µM

COc1cccc2c1C(=O)c1c(O)c3c(c(O)c1C2=O)C[C@@](O)(C(=O)CO)C[C@@H]3O[C@H]1C[C@H](N)[C@H](O)[C@H](C)O1 [doxorubicin]
Total lifetime dose above which myocardial damage may lead to congestive heart failure [4]: exceeds 550 mg/m^2
Level of senescent cells (luminescence) (p16-3MR animals): significant levels of senescent cells

Nc1cccc2c1CN(C1CCC(=O)NC1=O)C2=O (stereo not drawn) [lenalidomide]
Level of senescent cells (luminescence) (p16-3MR animals): significant levels of senescent cells

Nc1cccc2c1C(=O)N(C1CCC(=O)NC1=O)C2=O (stereo not drawn) [omalidomide]
Level of senescent cells (luminescence) (p16-3MR animals): significant levels of senescent cells

CC(=O)O[C@H]1C(=O)[C@@]2(C)[C@H]([C@H](OC(=O)c3ccccc3)[C@]3(O)C[C@H](OC(=O)[C@H](O)[C@@H](NC(=O)c4ccccc4)c4ccccc4)C(C)=C1C3(C)C)[C@]1(OC(C)=O)CO[C@@H]1C[C@@H]2O [paclitaxel]
Senescence shown by luminescence (p16-3MR transgenic mice): Senescence was observed
3MR transgene mRNA in skin (p16-3MR transgenic mice; vs vehicle): increased
IL-6 mRNA in skin (p16-3MR transgenic mice; vs vehicle): increased
p16 mRNA in skin (p16-3MR transgenic mice; vs vehicle): increased
